Data on six compounds can be found in publication PMC4569415, “Pro-Oxidant Activity of Amine-Pyridine-Based Iron Complexes Efficiently Kills Cancer and Cancer Stem-Like Cells” (PLoS ONE, 2015).

Each structure is given as a SMILES string. Structures can show the parent of a compound that is named as a salt.

Data set [1] has as its system CAPAN-1 cells. The data set is described as follows: MTT cytotoxicity assay. The conditions noted are these: MTT, 48 h of compound exposure. It is filed as cell-based, human. The protocol: (§1) The cytotoxic activity of the compounds was determined by MTT reduction assay as described. Compounds were diluted in Milli-Q water to obtain 1 mmol/L stock solutions. Appropriate aliquots of these solutions were diluted in the corresponding cell culture medium to obtain the final working concentrations. Aliquots of 5000 1BR3G cells, 6000 MCF-7, 6000 PC-3 cells, 10 000 CAPAN-1 cells, 4000 MCF 10A cells, 4000 HMLE cells or 4000 CCD-18Co cells were seeded in 96-well plates, 24 h prior to the treatments. Hematological cell lines were seeded at 400 000 cells/mL. Cells were treated with the corresponding compound at concentrations ranging from 0 to 100 μmol/L for 48 h. Three replicates for each compound were used. The IC50 was established for each compound by standard non-linear regression and curve fitting using GraphPad Prism (Graph Pad software Inc., La Jolla, CA, USA).
(Tetrazolium assays rely on reduction of a dye to a coloured formazan, in cell work by metabolically active cells.)

For data set [2], the system named is MCF-7 cells. The data set is described as follows: MTT cytotoxicity assay. Format: cell-based, human. The conditions noted are these: MTT, 48 h of compound exposure. The protocol:
as §1

For data set [3], the system named is MCF-7 cells. The data set is described as follows: Cellular labile iron pool with calcein-AM. Format: cell-based, human. The conditions noted are these: MCF-7.
Data set [4] is described as follows: Hemolytic assay. It is filed as cell-based. The conditions noted are these: human, erythrocyte suspension of fresh human blood (5% vol/vol). The protocol:
The hemolytic activity of the compounds at 100 μmol/L was evaluated by determining hemoglobin release from erythrocyte suspensions of fresh human blood (5% vol/vol) as described.

The test system of data set [5] is JURKAT. The data set is described as follows: MTT cytotoxicity assay. The note with it: Homo sapiens, 48 h of treatment. It is filed as cell-based. The protocol:
as §1

Data set [6] relates to Z-138. The data set is described as follows: MTT cytotoxicity assay. The note with it: Homo sapiens, 48 h of treatment. It is filed as cell-based. The protocol:
as §1

For data set [7], the system named is 1BR3G. Nature of the data set: MTT cytotoxicity assay. It is filed as cell-based. The conditions noted are these: Homo sapiens, 48 h of treatment, non malignant cells. The protocol:
as §1

Data set [8] deals with HMLE. Nature of the data set: MTT cytotoxicity assay. The note with it: Homo sapiens, 48 h of treatment, non malignant cells. Format: cell-based. The protocol:
as §1

Data set [9] has as its system CCD-18Co. Nature of the data set: MTT cytotoxicity assay. The conditions noted are these: Homo sapiens, 48 h of treatment, non malignant cells. Format: cell-based. The protocol:
as §1

Data set [10] has as its system MCF-10A. Nature of the data set: MTT cytotoxicity assay. Format: cell-based. The conditions noted are these: Homo sapiens, 48 h of treatment, non malignant cells. The protocol:
as §1

Data set [11] deals with PC-3. Nature of the data set: MTT cytotoxicity assay. Format: cell-based. The note with it: Homo sapiens, 48 h of treatment. The protocol: as §1
Data set [12] deals with CAPAN-1 cells. The data set is described as follows: Cellular labile iron pool with calcein-AM. Format: cell-based, human. The note with it: CAPAN-1, 100 μmol/L, 24 h. The protocol:
The cellular labile iron pool was determined with calcein-AM. CAPAN-1 cells (125 000 cells/ well) were seeded in 24-well plates and incubated for 24 h. Then, cells were treated for 24 h with 10 μmol/L of compound 1, 2 or 5 at 37°C. In some experiments, cells were incubated for 2 h with 100 μmol/L of DFO or 100 μmol/L FeCl2. Cells exposed to the vehicle alone were used as a control. After treatments, cells were washed with PBS and incubated with calcein-AM (0.25 μmol/L) for 30 min at 37°C in the dark. Subsequently, cells were washed and collected with trypsin and the geometric mean fluorescence intensity of 10 000 cells was determined by flow cytometry as described.

Data set [13] relates to MCF-7 and CAPAN-1 cells. The data set is described as follows: MTT cell viability with modulators (QVD-Oph, FeCl2). The conditions noted are these: FeCl2 alone at 1, 10 or 100 μmol/L, 48 h. Format: cell-based, human. The protocol: as §1
Fig 4 Induction of caspase activity. (A) The indicated cell lines were treated for 48 h with compounds 1, 2 and 5 (10 μmol/L) and caspase 3/7 activity was measured as indicated in Materials and Methods. Bar charts show the fold increase in caspase activity relative to untreated (control) and represent the mean±SD from three independent experiments performed in triplicate. (B) MCF-7 and CAPAN-1 cells were treated for 48 h with the ligands (10 μM) in the absence (-) or presence (+) of the pan-caspase inhibitor QVD-Oph (20 μM) and cell viability was measured with the MTT assay. […] Data represents the mean ± SD of 3 independent experiments performed in triplicate. The differences between absence and presence of QVD-OPh treatment were statistically significant at * p<0.05, **p<0.01 and ***p<0.001.
Fig 9 Effects of iron on 1, 2 and 5 activity. (A) Effect of 2 h FeCl2 pre-incubation (FeCl2 p) (dotted line) or co-incubation (FeCl2 c) (dashed line) at 1, 10 or 100 μmol/L on the cytotoxicity of 2 (5 μmol/L) in MCF-7 and CAPAN-1 cells. FeCl2 alone was included as a control (solid line). Cell viability was determined after 48 h of treatment by the MTT assay. (B) Effect of FeCl2 pre-incubation or co-incubation (100 μmol/L) on the cytotoxicity of 2 (5 μmol/L), 1 and 5 (10 μmol/L). Cells treated with the ligands alone were included as a reference (control). (C) ROS induction in CAPAN-1 cells after 24 h treatment with 2 (10 μmol/L) alone, together with FeCl2 or after FeCl2 pre-incubation (at 100 μmol/L). Results are presented as a percentage of untreated cells and represent mean±SD of 3 independent experiments. *p < 0.05 versus control cells.

For data set [14], the system named is CS-like HMLER-shEcad cells. The data set is described as follows: MTT cytotoxicity assay in cancer stem-like cells. It is filed as cell-based, human. The conditions noted are these: 48 h. The protocol: as §1
(§2) Fig 2 Cell viability assay. (A) Cytotoxic activity of compounds 1, 2, and 5 against cancer cells. The indicated cell lines were treated for 48 h with ligands (10 μmol/L) and cell viability was measured with the MTT assay. Data represents the percentage of viable cells relative to untreated cells (control). (B) Cytotoxicity of doxorubicin and compounds 1, 2 and 5 against CS-like cells. CS-like HMLER-shEcad cells and non-CS-like HMLER isogenic parental cells were treated for 48 h with graded concentrations of doxorubicin, 1, 2 and 5. Cell viability was measured with the MTT assay. For each treatment, the percentage of viable cells relative to untreated cells is indicated. Data represents the mean±SD of 3 independent experiments performed in triplicate.

For data set [15], the system named is HMLER cells. Nature of the data set: MTT cytotoxicity assay in non-CS-like parental cells. Format: cell-based. The conditions noted are these: Homo sapiens, 48 h. The protocol: as §1, §2

As usually defined, the IC50 is the concentration that inhibits the measured activity by half. `N.N.[Cl][Pt][Cl]` [Cisplatin, reference compound]: the IC50 was 2.2 ± 0.3 µM in data set [1] and 2.4 ± 0.4 µM in data set [2].

As to `CC(=O)N(O)CCCCCNC(=O)CCC(=O)N(O)CCCCCNC(=O)CCC(=O)N(O)CCCCCN` [DFO, deferoxaminemesylate salt, reference compound], the “calcein fluorescence increase after DFO incubation” value in data set [3] was 132.1±16.5%.

For `CN(Cc1ccccn1)[C@H]1CCCC[C@@H]1N(C)Cc1ccccn1` [Compound 3], the hemolysis at 100 µM in data set [4] is 0%. For the same compound, the IC50 is 27.7 ± 2.9 µM in data set [1] (Homo sapiens, CAPAN-1); 40.6 ± 2.5 µM in data set [2] (Homo sapiens, MCF7); greater than 100 µM in data set [5]; 16.5 ± 1.4 µM in data set [6]; 45 ± 1 µM in data set [7]; 32.5 ± 3.8 µM in data set [8]. Also, the IC50 in [9] was greater than 100 µM; in data set [10] it was 39.7 ± 2.9 µM; in data set [11] it was 35 ± 4.2 µM.

`CN1CCN(C)CCN(Cc2ccccn2)CC1` [Compound 4]: the hemolysis at 100 µM in [4] amounted to 0%. Also, the IC50 in [1] (Homo sapiens, CAPAN-1) was 32 ± 10.4 µM; in data set [2] (Homo sapiens, MCF7), 88.5 ± 0.7 µM; in data set [5], greater than 100 µM; in data set [6], 23.1 ± 1.8 µM; in data set [7], 78 ± 8.5 µM; in [8], 47.7 ± 4.5 µM. In addition, the IC50 in data set [9], in data set [10] and in [11] was greater than 100 µM in each case.

For `[Cl][Fe][Cl]` [FeCl2, reference compound], the “calcein fluorescence intensity, % of control cells” value in [12] is on record as 74.2±15.5%. Besides, in data set [13], the “effect on cell viability” value is given as “did not affect the viability”.

Consider `COc1cccc2c1C(=O)c1c(O)c3c(c(O)c1C2=O)C[C@@](O)(C(=O)CO)C[C@@H]3O[C@H]1C[C@H](N)[C@H](O)[C@H](C)O1` [doxorubicin, reference compound], for which the “fold increase in IC50, HMLER-shECad vs HMLER” value in data set [14] was ~ 3 fold. In addition, the IC50 in [14] (Homo sapiens) is 0.3 ± 0.02 µM; in data set [15] it was 0.1 ± 0.02 µM.
